Values joined by “and” are separate entries in the source; they are usually repeats but may differ in a detail not shown here. Identical values can stand only once. “Also recorded” adds a separate entry of the source.
Legend:
[1] = Dexamethasone in eye tissues and fluids after one 25 μL depot instillation; settings: for concentration at 3 day / concentration at 8 day / concentration at 8 h / concentration at 24 h / concentration at 14 day / concentration at 21 day: female, New Zealand White, rabbit, topical, 25 μL, Dexamethasone; for concentration at 3 day: Day 3; for concentration at 8 day: Day 8; for concentration at 24 h: Hr 24
[2] = Dexamethasone level in anterior chamber after 50 μL depot (GLP study); assay type: in vivo, New Zealand White (NZW) rabbits; settings: both sexes, New Zealand White, rabbit, topical
Procedure: In a good laboratory practices (GLP) study, depots of 50 μL were instilled into each eye of New Zealand White (NZW) rabbits (either sex, 3.5-4 kilo), and the anterior chamber tapped subsequently and assayed by LCMS.

[3] = In vitro release of gatifloxacin from liquid depot, samples Gati-90A to F; assay type: physicochemical; settings: for Gatifloxacin cumulative % released, Avg: Avg of 90-A to 90-F
Procedure: The in vitro sustained release study of gatifloxacin was carried out using a Cabone ring (Wilton Brands LLC, Woodridge, Ill. 60517) of 12.7 mm. […] [At each time point, 20 ml from each of the six samples was withdrawn for sampling and replaced with 20 mL saline. The amount of gatifloxacin released was determined by UPLC. The release profile of gatifloxacin-containing liquid depot formulation is shown in Table 15, Table 16, and FIG. 14; gatifloxacin was released for at least 24 hours.

[4] = In vitro release of prednisolone from liquid depot, samples 5A to 5F; assay type: physicochemical
Procedure: Six samples, 5A to 5F, each weighing at 48.2 mg, 48.5 mg, 48.1 mg, 49 mg, 51.7 mg, and 49.2 mg, respectively (average weight=49.1 mg; SD=1.34; % RSD=2.7) were incubated in 50 ml saline at 40° C. At each time point, 25 ml from each of the six samples was withdrawn for sampling and replaced with 25 ml saline.

[5] = Vitamin E acetate in rabbit aqueous humor samples; assay type: in vivo; settings: days 1, 4, 7, 12; quantification limit 1.0 ng/mL
[6] = single 50 μL instillation
[7] = Diclofenac in tear samples after 50 μL liquid depot; assay type: in vivo, NZW rabbits; settings: one-time application of 50 μL
Procedure: A formulation of the NSAID diclofenac was prepared by thoroughly mixing 10% diclofenac acid in a 90% liquid depot mixture of 80:20 tocopheryl acetate:Miglyol®. A one-time application of 50 μL of this formulation was instilled into the eyes of NZW rabbits, and then tear samples were collected and analyzed as described herein.

[8] = aqueous humor, Aqueous Humor Average (±SD), one 25 μL instillation of 10% dexamethasone depot
[9] = conjunctiva, Conjunctiva Average (±SD), one 25 μL instillation
[10] = cornea, Cornea Average (±SD), one 25 μL instillation
[11] = iris/ciliary body, Iris/Ciliary Body Average (±SD), one 25 μL instillation
[12] = one instillation of the liquid depot

C[C@@H]1C[C@H]2[C@@H]3CCC4=CC(=O)C=C[C@]4(C)[C@@]3(F)[C@@H](O)C[C@]2(C)[C@@]1(O)C(=O)CO [Dexamethasone, dexamethasone]
Dexamethasone, Iris/Ciliary Body Tissue ([1]; Day 14, per eye, one 25 μL instillation): 1.21 ng/g and 2.00 ng/g | Dexamethasone, Iris/Ciliary Body Homog. ([1]; Day 14, per eye, one 25 μL instillation, LOQ 0.2 ng/mL): 0.241 ng/mL and 0.399 ng/mL | Dexamethasone, Aqueous Humor Conc. ([1]; Day 21, per eye, one 25 μL instillation of 10% dexamethasone depot, LOQ 0.5 ng/mL): BLOQ | Dexamethasone, Iris/Ciliary Body Homog. ([1]; Day 21, per eye, one 25 μL instillation, LOQ 0.2 ng/mL): BLOQ | Dexamethasone, Iris/Ciliary Body Tissue ([1]; Hr 8, per eye, one 25 μL instillation): 83.0 ng/g and 86.0 ng/g and 150 ng/g and 113 ng/g and 157 ng/g | Dexamethasone, Iris/Ciliary Body Homog. ([1]; Hr 8, per eye, one 25 μL instillation, LOQ 0.2 ng/mL): 16.6 ng/mL and 17.2 ng/mL and 30.0 ng/mL and 22.5 ng/mL and 31.4 ng/mL | concentration at 3 day [1, 8]: 2.5 ng/mL | concentration at 8 day [1, 8]: 7.53 ng/mL | concentration at 8 h ([1]; aqueous humor, Aqueous Humor Average (±SD), Hr 8, one 25 μL instillation of 10% dexamethasone depot): 44.8 ng/mL | concentration at 24 h [1, 8]: 2.47 ng/mL | concentration at 14 day ([1]; aqueous humor, Aqueous Humor Conc., Day 14, per eye, one 25 μL instillation of 10% dexamethasone depot, LOQ 0.5 ng/mL): 0.677 ng/mL | concentration at 3 day [1, 9]: 372 ng/g | concentration at 8 day [1, 9]: 1630 ng/g | concentration at 14 day ([1]; conjunctiva, Conjunctiva Average (±SD), Day 14, one 25 μL instillation): 53.8 ng/g | concentration at 21 day ([1]; conjunctiva, Conjunctiva Average (±SD), Day 21, one 25 μL instillation): 28.2 ng/g | concentration at 8 h ([1]; conjunctiva, Conjunctiva Average (±SD), Hr 8, one 25 μL instillation): 1660 ng/g | concentration at 24 h [1, 9]: 598 ng/g | concentration at 3 day [1, 10]: 176 ng/g | concentration at 8 day [1, 10]: 284 ng/g | concentration at 14 day ([1]; cornea, Cornea Average (±SD), Day 14, one 25 μL instillation): 12.2 ng/g | concentration at 21 day ([1]; cornea, Cornea Average (±SD), Day 21, one 25 μL instillation): 8.14 ng/g | concentration at 8 h ([1]; cornea, Cornea Average (±SD), Hr 8, one 25 μL instillation): 560 ng/g | concentration at 24 h [1, 10]: 260 ng/g | concentration at 14 day ([1]; iris/ciliary body homogenate, Iris/Ciliary Body Homog., Day 14, per eye, one 25 μL instillation, LOQ 0.2 ng/mL): 0.239 ng/mL | concentration at 8 h ([1]; iris/ciliary body homogenate, Iris/Ciliary Body Homog., Hr 8, per eye, one 25 μL instillation, LOQ 0.2 ng/mL): 30.2 ng/mL | concentration at 3 day [1, 11]: 9.72 ng/g | concentration at 8 day [1, 11]: 8.15 ng/g | concentration at 14 day ([1]; iris/ciliary body, Iris/Ciliary Body Average (±SD), Day 14, one 25 μL instillation): 1.47 ng/g | concentration at 21 day ([1]; iris/ciliary body, Iris/Ciliary Body Average (±SD), Day 21, one 25 μL instillation): 3.88 ng/g | concentration at 8 h ([1]; iris/ciliary body, Iris/Ciliary Body Average (±SD), Hr 8, one 25 μL instillation): 123 ng/g | concentration at 24 h [1, 11]: 12.3 ng/g | concentration at 14 day ([1]; iris/ciliary body, Iris/Ciliary Body Tissue, Day 14, per eye, one 25 μL instillation): 1.2 ng/g | concentration at 8 h ([1]; iris/ciliary body, Iris/Ciliary Body Tissue, Hr 8, per eye, one 25 μL instillation): 151 ng/g | Time dexamethasone was in the aqueous humor [1, 12]: at least 8 days | Time dexamethasone was in the conjunctiva, cornea, and iris/ciliary body [1, 12]: at least 21 days | concentration at 1 day ([2]; Day 1, 50 μL depot 10:72:18): 6.68 ng/mL | concentration at 3 day ([2]; Day 3, 50 μL depot 10:72:18): 6.48 ng/mL | concentration at 5 day ([2]; Day 5, 50 μL depot 10:72:18): 4.14 ng/mL | concentration at 7 day ([2]; Day 7, 50 μL depot 10:72:18): 4.08 ng/mL | concentration at 10 day ([2]; Day 10, 50 μL depot 10:72:18): 3.2 ng/mL

COc1c(N2CCNC(C)C2)c(F)cc2c(=O)c(C(=O)O)cn(C3CC3)c12 (stereo not shown) [Gatifloxacin, gatifloxacin]
Average concentration of gatifloxacin released ([3]; 1 Hour): 38.9 µg/mL | Gatifloxacin cumulative % released, Avg ([3]; 1 Hour): 32.3% | Average concentration of gatifloxacin released ([3]; 3 Hours): 61.9 µg/mL | Gatifloxacin cumulative % released, Avg ([3]; 3 Hours): 67.5% | Average concentration of gatifloxacin released ([3]; 24 Hours): 53.4 µg/mL | Gatifloxacin cumulative % released, Avg ([3]; 24 Hours): 86.2% | Time gatifloxacin was released in vitro ([3]; 40 mL saline at 40° C.): at least 24 hours

C[C@]12C=CC(=O)C=C1CC[C@@H]1[C@@H]2[C@@H](O)C[C@@]2(C)[C@H]1CC[C@]2(O)C(=O)CO [Prednisolone, prednisolone]
Prednisolone cumulative % released, Avg ([4]; Day 0, Avg of 5A to 5F): 0% | Average concentration of prednisolone released ([4]; Day 1): 32.6 µg/mL | Amount of prednisolone released, Avg ([4]; Day 1, Avg of 5A to 5F): 1630.3 µg | Average concentration of prednisolone released ([4]; Day 2): 39.4 µg/mL | Amount of prednisolone released, Avg ([4]; Day 2, Avg of 5A to 5F): 1153.1 µg | Average concentration of prednisolone released ([4]; Day 3): 38.1 µg/mL | Amount of prednisolone released, Avg ([4]; Day 3, Avg of 5A to 5F): 922.4 µg | Average concentration of prednisolone released ([4]; Day 4): 30.6 µg/mL | Amount of prednisolone released, Avg ([4]; Day 4, Avg of 5A to 5F): 577.5 µg | Average concentration of prednisolone released ([4]; Day 5): 19.6 µg/mL | Amount of prednisolone released, Avg ([4]; Day 5, Avg of 5A to 5F): 72.3 µg

CC(=O)Oc1c(C)c(C)c2c(c1C)CC[C@@](C)(CCC[C@H](C)CCC[C@H](C)CCCC(C)C)O2 [Vitamin E acetate, [(2R)-2,5,7,8-tetramethyl-2-[(4R,8R)-4,8,12-trimethyltridecyl]chroman-6-yl]acetate]
Vitamin E acetate in aqueous humor samples [5]: not observed; also recorded: No detectable | Time vitamin E acetate was present in the tears of rabbit eyes [6]: at least 12 days

O=C(O)Cc1ccccc1Nc1c(Cl)cccc1Cl [diclofenac, diclofenac acid]
Time diclofenac was detected in the rabbit tear film [7]: ≥ 7 days

Reference: patent US12280141B2, “Liquid depot for non-invasive sustained delivery of agents to the eye” (CHIBI, INC., priority 2018, dated 2025)
